From ChEMBL document CHEMBL1201862, “PubChem BioAssay data set” (2004)
Active and inactive are the calls of the source.

Key:
[1] = NIH-3T3 fibroblast cytotoxicity, dose response, cytotoxicity control, cell-based, fluorescence, Alamar Blue, secondary assay (AID 2327); format: functional;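 note: NIH-3T3 mouse fibroblasts cultured with fluconazole at 8 µg/mL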
[2] = Luminescence Cell-Based Dose Retest to Confirm Inhibitors of Cancer Stem Cells. [Related pubchem assays (depositor defined):AID2717, AID2721]; format: functional; settings: Homo sapiens
[3] = molecular target: T1, Replicative DNA helicase DnaB (Mycobacterium tuberculosis, UniProt P9WMR3); assay: DnaB intein splicing inhibitors, dose response, biochemical, cell-free fluorescence (AID 449749); format: functional
T1 sequence (P9WMR3 whole entry): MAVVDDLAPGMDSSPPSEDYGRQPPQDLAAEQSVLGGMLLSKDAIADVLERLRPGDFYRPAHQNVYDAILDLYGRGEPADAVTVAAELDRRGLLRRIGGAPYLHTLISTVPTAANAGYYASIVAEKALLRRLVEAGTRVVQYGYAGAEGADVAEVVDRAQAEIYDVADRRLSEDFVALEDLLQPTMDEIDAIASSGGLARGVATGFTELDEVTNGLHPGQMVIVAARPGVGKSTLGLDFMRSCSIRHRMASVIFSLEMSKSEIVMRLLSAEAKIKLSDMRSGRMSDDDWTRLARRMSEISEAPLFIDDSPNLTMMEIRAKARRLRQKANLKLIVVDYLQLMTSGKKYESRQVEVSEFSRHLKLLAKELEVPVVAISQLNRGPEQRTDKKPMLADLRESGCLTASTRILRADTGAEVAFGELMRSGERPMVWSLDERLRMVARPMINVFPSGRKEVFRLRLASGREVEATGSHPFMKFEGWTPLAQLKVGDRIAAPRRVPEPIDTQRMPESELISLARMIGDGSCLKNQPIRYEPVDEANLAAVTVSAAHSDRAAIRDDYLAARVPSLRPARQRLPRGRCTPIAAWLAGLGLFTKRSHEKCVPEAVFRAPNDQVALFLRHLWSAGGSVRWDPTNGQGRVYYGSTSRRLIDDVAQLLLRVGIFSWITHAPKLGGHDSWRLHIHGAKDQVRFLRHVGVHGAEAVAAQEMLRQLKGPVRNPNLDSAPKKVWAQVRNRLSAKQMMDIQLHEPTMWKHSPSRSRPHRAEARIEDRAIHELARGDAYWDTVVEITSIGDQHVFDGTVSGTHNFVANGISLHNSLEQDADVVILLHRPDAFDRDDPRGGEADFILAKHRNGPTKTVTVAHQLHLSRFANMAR

Protein RecA = molecular target: T2, Protein RecA (Mycobacterium tuberculosis, UniProt P9WHJ3); assay: Fluorescence Cell-Free Homogeneous Dose Retest to Identify Inhibitors of RecA-Intein Splicing Activity. [Related pubchem assays (depositor defined):AID2097, AID2223, AID489010, AID492950]; format: functional
T2 sequence (P9WHJ3 whole entry): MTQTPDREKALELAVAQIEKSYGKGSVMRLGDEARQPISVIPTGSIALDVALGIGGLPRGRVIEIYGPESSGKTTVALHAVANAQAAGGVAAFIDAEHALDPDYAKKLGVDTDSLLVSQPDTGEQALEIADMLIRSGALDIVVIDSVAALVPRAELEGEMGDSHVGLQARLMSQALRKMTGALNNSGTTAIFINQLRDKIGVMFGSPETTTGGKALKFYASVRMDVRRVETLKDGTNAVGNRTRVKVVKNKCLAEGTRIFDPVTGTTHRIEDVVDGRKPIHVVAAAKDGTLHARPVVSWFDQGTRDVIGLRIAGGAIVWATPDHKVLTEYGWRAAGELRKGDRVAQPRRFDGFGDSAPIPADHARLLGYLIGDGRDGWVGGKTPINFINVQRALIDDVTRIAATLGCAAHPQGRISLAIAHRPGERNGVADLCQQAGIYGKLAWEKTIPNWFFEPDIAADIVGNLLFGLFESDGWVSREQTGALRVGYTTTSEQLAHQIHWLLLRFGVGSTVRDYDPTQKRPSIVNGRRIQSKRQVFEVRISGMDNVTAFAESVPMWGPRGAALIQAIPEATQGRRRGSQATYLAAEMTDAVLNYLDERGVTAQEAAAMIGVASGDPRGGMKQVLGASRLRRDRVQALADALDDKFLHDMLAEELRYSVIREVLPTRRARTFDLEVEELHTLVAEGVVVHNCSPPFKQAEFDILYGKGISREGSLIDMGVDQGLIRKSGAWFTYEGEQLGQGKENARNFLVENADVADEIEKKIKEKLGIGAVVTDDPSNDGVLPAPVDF

Protein skinhead-1 = molecular target: T3, Protein skinhead-1 (Caenorhabditis elegans, UniProt P34707); format: functional
T3 sequence (P34707 whole entry): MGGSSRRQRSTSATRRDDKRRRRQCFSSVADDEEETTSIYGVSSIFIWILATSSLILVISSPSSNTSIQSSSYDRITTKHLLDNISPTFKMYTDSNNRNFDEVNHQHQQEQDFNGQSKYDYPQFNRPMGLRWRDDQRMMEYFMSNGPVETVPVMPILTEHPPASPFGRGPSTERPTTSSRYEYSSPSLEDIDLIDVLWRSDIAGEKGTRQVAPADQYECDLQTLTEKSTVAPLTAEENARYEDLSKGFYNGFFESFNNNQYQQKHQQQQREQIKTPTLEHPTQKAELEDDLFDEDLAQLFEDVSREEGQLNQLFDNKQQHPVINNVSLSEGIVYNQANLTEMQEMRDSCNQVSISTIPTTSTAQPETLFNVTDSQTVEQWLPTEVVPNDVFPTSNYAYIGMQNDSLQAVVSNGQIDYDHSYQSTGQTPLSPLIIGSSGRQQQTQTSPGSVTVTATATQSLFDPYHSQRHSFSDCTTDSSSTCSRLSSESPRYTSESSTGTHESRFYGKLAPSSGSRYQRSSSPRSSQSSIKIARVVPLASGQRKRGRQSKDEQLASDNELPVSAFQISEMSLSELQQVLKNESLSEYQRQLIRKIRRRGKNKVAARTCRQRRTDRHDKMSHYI

[4] = molecular target: T4, Corticotropin-releasing factor receptor 2/Corticotropin-releasing factor-binding protein (Homo sapiens, UniProt P24387+Q13324); assay: Dose Response confirmation of uHTS hits for small molecule antagonists of the CRF-binding protein and CRF-R2 receptor complex.; format: functional; settings: read-out: IC50_Mean
T4 sequence (Q13324 whole entry): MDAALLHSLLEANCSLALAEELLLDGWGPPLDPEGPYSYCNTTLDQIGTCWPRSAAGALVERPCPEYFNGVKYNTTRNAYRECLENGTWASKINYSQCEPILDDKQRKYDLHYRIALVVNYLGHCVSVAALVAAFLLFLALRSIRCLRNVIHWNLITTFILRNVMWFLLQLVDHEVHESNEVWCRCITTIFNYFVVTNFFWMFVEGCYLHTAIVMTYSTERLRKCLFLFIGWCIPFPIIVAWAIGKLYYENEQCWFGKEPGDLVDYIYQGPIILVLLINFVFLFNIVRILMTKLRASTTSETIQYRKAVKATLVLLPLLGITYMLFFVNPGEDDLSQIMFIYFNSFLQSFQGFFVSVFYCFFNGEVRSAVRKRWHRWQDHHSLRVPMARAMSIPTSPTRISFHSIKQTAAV
T4 sequence (P24387 whole entry): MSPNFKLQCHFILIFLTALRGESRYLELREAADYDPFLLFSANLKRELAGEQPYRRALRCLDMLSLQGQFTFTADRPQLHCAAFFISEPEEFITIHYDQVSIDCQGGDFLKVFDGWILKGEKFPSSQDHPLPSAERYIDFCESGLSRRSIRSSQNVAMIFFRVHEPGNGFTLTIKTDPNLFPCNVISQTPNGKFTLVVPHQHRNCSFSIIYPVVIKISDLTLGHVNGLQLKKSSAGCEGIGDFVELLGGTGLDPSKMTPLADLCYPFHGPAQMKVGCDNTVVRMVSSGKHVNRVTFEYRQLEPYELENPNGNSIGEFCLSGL

[5] = molecular target: T4, Corticotropin-releasing factor receptor 2/Corticotropin-releasing factor-binding protein; assay: activators of CRF receptor 2 with binding protein – uHTS hits, confirmation (AID 602473); format: functional; settings: read-out: EC50_Mean
[6] = system: Streptococcus sp. 'group A'; assay: Streptococcus pyogenes SK(-)GAS viability under kanamycin – luminescence, BacTiterGlo, confirmation, counter-screen for streptokinase expression inhibitor project, dose response (AID 1900); format: functional, organism-based
Streptokinase A = molecular target: T5, Streptokinase A (Streptococcus pyogenes serotype M1, UniProt P10520); assay: viability-normalized secreted streptokinase activity reduction – plasminogen activation absorbance, OD405, dose response (AID 1914); format: functional, Streptococcus pyogenes M1 GAS;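 note: secreted streptokinase activity via plasminogen activation per viability signal from cell pellet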
T5 sequence (P10520 whole entry): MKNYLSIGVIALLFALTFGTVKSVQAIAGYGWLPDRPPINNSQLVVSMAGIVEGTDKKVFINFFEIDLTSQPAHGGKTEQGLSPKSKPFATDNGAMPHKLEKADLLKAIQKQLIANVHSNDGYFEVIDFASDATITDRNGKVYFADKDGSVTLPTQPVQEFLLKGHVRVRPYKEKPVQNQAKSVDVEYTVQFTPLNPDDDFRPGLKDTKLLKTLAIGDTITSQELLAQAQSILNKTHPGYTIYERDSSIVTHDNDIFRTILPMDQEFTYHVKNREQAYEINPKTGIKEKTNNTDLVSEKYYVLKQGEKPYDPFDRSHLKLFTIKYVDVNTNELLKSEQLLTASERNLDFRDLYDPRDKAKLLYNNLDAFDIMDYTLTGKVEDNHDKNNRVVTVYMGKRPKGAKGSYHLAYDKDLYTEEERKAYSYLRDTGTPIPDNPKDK

Streptococcus = assay: GAS UMAA2166 growth inhibition – luminescence, BacTiterGlo, counter-screen for streptokinase expression inhibitor project, dose response (AID 1915); format: functional, organism-based;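 note: potency for reduction of bacterial viability or growth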
cells = format: functional
[7] = P. falciparum Dd2 growth inhibitors, dose response, SYBR Green, cherry-picked samples (AID 1159567); format: functional, cell-based

## Cn1c(SCC(=O)N2CCCc3ccccc32)nnc1-c1ccccc1
[1]
  EC50: > 160 µM (inactive)

## Cc1cc(-c2ccccc2)nc2cc(C(=O)N(Cc3ccccc3)Cc3ccccc3)nn12
[2]
  AC50: 4.86 µM (active)
[3]
  AC50: > 120 µM (inactive)
Protein RecA
  EC50: > 380 µM (inactive)

## Clc1ccc(-c2cc(CSc3ccccc3)on2)cc1
Protein skinhead-1
  IC50: 20 µM (active)

## CCCOc1ccc(C(=O)C2=C(O)C(=O)N(c3cc(C)on3)C2c2ccc(C(=O)OC)cc2)cc1 (stereo unspecified)
Protein skinhead-1
  IC50: > 100 µM (inactive)

## CSc1ccc(CCNC(=O)c2ccc(C[S+]([O-])Cc3ccc(Cl)cc3)o2)cc1 (stereo unspecified)
[4]
  IC50: > 47.1 µM (inactive)
[5]
  EC50: > 53 µM (inactive)

## COc1ccc(NC(=O)C(=O)NNC(=O)C(C)Oc2ccc(Cl)cc2Cl)cc1 (stereo unspecified)
[6]
  EC50: 4.84 µM (active)
Streptokinase A
  EC50: > 150 µM (not active)
Streptococcus
  EC50: 18.5 µM (active)
cells
  IC50: 6.02 µM (active)

## CC(C)CSc1nnc2[nH]c(=O)cc(N)n12
[4]
  IC50: > 47.1 µM (inactive)
[5]
  EC50: > 53 µM (inactive)

## CCOC(=O)c1sc(NC(=O)CN(CC(C)C)CC(C)C)c(C(=O)OCC)c1C
[4]
  IC50: > 47.1 µM (inactive)
[5]
  EC50: > 53 µM (inactive)

## COc1cc2c(cc1OC)C(/C=C(\O)c1ccc(OC)c([N+](=O)[O-])c1)=NCC2
[4]
  IC50: > 47.1 µM (inactive)
[5]
  EC50: > 53 µM (inactive)

## N#CC1=C(N)N(c2ccccc2)C(c2ccccc2)C1(C#N)C#N (stereo unspecified)
[3]
  AC50: 7.51 µM (active)
Protein RecA
  EC50: 11.6 µM (active)

## CSc1ccc(/C=C(/NC(=O)c2ccc(C)cc2)C(=O)Nc2cccc(F)c2)cc1
[4]
  IC50: > 47.1 µM (inactive)
[5]
  EC50: > 53 µM (inactive)

## CC(C)(C)c1ccc(C2=CSC3=NCCN23)cc1
Protein skinhead-1
  IC50: > 100 µM (inactive)

## Cc1cc2cc(CNC(=O)c3cccc([N+](=O)[O-])c3)ccc2n1C
Protein skinhead-1
  IC50: > 100 µM (inactive)

## COC(=O)c1ccc(C(=O)OC)c(-n2c(=O)c3ccccc3c3ccccc3c2=O)c1
[3]
  AC50: 8.61 µM (active)
Protein RecA
  EC50: 18.5 µM (active)

## CCC(C)Nc1nc(Cl)nc(N(C#N)CN2C(=O)c3ccccc3S2(=O)=O)n1 (stereo unspecified)
[3]
  AC50: 14 µM (active)
Protein RecA
  EC50: 18.2 µM (active)

## CN(CC(=O)Nc1ccc2c(c1)OCCO2)CC(=O)Nc1ccc(F)c(F)c1F
[4]
  IC50: > 47.1 µM (inactive)
[5]
  EC50: > 53 µM (inactive)

## COc1ccc(CC(=O)O/N=C(\N)Cc2cccc3ccccc23)cc1OC
[3]
  AC50: 73.3 µM (active)
Protein RecA
  EC50: 18.2 µM (active)

## CCOC(=O)Cn1c(=O)oc2cc(S(=O)(=O)NC(C)(C)CC)ccc21
[4]
  IC50: > 47.1 µM (inactive)
[5]
  EC50: > 53 µM (inactive)

## O=C(Oc1ccc(N2C(=O)C3C4CCC(C4)C3C2=O)cc1)c1ccco1 (stereo unspecified)
[3]
  AC50: 28.2 µM (active)
Protein RecA
  EC50: 13 µM (active)

## CC(=O)N1CCOc2cc(S(=O)(=O)N3CCN(c4ccccc4)CC3)c(Cl)cc21
[4]
  IC50: > 47.1 µM (inactive)
[5]
  EC50: > 53 µM (inactive)

## N#Cc1ccccc1OCC(O)CS(=O)(=O)c1ccccc1 (stereo unspecified)
Protein skinhead-1
  IC50: > 100 µM (inactive)

## COc1ccc(-c2ccc(/C=N/NC(=O)Cc3nnc(N)s3)o2)cc1Cl
[4]
  IC50: > 47.1 µM (inactive)
[5]
  EC50: > 53 µM (inactive)

## COc1ccc(NC(=O)N(C)C[C@H]2Oc3cc(-c4ccc(C)cc4)ccc3S(=O)(=O)N([C@H](C)CO)C[C@@H]2C)cc1
[7]
  AC50: 4.83 µM (active)

## C[C@H](CO)N1C[C@H](C)[C@@H](CN(C)C(=O)Nc2cccc3ccccc23)Oc2ccc(NC(=O)Nc3cccc4ccccc34)cc2CC1=O
[7]
  AC50: 5.57 µM (active)

## C[C@H](CO)N1C[C@H](C)[C@H](CN(C)CC2CC2)Oc2cc(-c3cccc(C#N)c3)ccc2S1(=O)=O
[7]
  AC50: 3.61 µM (active)

## COc1ccc(C#Cc2ccc([C@H]3[C@H]4CN(C(=O)c5ccc(F)cc5)CC(=O)N4[C@H]3CO)cc2)cc1
[7]
  AC50: 6.95 µM (active)

## CCCC#Cc1ccc2c(c1)O[C@H](CN(C)C(=O)c1ccccc1F)[C@@H](C)CN([C@H](C)CO)S2(=O)=O
[7]
  AC50: 4.94 µM (active)
